In data set [1] the test system is Human cytomegalovirus (HCMV). Briefly: Human cytomegalovirus (HCMV) plaque reduction assay in MRC5 or Detroit 532 cells. Type of data set: cell-based. Conditions: for IC50: Human betaherpesvirus 5, HCMV, MRC5 or Detroit 532 cells, plaque reduction. The protocol:
Human cytomegalovirus (HCMV) is assayed in monolayers of either MRC5 cells (human embryonic lung) or Detroit 532 cells (human foreskin fibroblasts) in multiwell trays. Activity of compounds is determined in the plaque reduction assay, in which a cell monolayer is infected with a suspension of HCMV, and then overlaid with nutrient agarose in the form of a gel to ensure that there is no spread of virus throughout the culture. A range of concentrations of compound of known molarity was incorporated in the nutrient agarose overlay. Plaque numbers of each concentration are expressed as percentage of the control and a dose-response curve is drawn. From this curve the 50% inhibitory concentration (IC50) is estimated.
In general terms: Plaque reduction counts the foci of infection that form in a cell layer.

A further data set relates to herpes simplex. Conditions: in vitro; cited from earlier work.
Another data set concerns vaccinia. Particulars: in vitro; cited from earlier work.
Data set [2] can be described thus: Cell toxicity in Vero cell growth inhibition assay (MTT). Format: cell-based. Conditions: monkey; Vero cells, 50% inhibition of cell viability (MTT) at 96 hours; read-out: CCID50 at 96 hr. The procedure: Cell toxicity is assessed in a cell growth inhibition assay. Subconfluent cultures of Vero cells grown on 96-well microtiter dishes are exposed to different dilutions of drug, and cell viability determined daily on replicate cultures using uptake of a tetrazolium dye (MTT). The concentration required for a 50% inhibition of cell viability at 96 hours is termed CCID50.

Data set [3] has as its system Varicella zoster virus (VZV). Put plainly: Varicella zoster virus (VZV) assayed in MRC5 cells, plaque reduction method without agarose overlay. Type of data set: cell-based. Conditions: for IC50: Human alphaherpesvirus 3, MRC5 cells.

Each structure is given as a SMILES string.

As for `C#Cc1cn([C@H]2C[C@H](O)[C@@H](CO)O2)c(=O)n(C(=O)c2ccccc2)c1=O` [Example 1, 3-N-Benzoyl-2'-deoxy-5-ethynyluridine], the “activity against CMV (in words)” value in data set [1] (CMV) is recorded as “high activity against CMV”.

With `C#Cc1cn([C@H]2C[C@H](O)[C@@H](CO)O2)c(=O)[nH]c1=O` [2'-deoxy-5-ethynyluridine], in the data set on herpes simplex, the “antiviral activity against herpes simplex (in words)” value is on record as “did not demonstrate any effect of use in human medicinal chemotherapy”. In addition, the “antiviral activity against vaccinia (in words)” value with vaccinia is “did not demonstrate any effect of use in human medicinal chemotherapy”.

For the molecule `CC#Cc1cn([C@H]2C[C@H](O)[C@@H](CO)O2)c(=O)n(C(=O)c2ccccc2)c1=O` [Example 4, 3-N-Benzoyl-2'-deoxy-5-propynyluridine], in data set [1], half-maximal inhibition (IC50) was put at 28.5 µM. Also, the CC50 at 96 h in data set [2] was above 500 µM. Moreover, in data set [3], the “anti-VZV activity (in words)” value was “potent anti-VZV activity” and 2.2 µM corresponded to half-maximal inhibition (IC50).

On to `CC#Cc1cn([C@H]2C[C@H](O)[C@@H](CO)O2)c(=O)nc1N` [Example 2, 2'-Deoxy-5-propynylcytidine], for which the results for the IC50 in data set [1] and in data set [3] were above 20 µM and 3.3 µM, respectively. In addition, the CC50 at 96 h in data set [2] is above 300 µM. Also, the “anti-VZV activity (in words)” value in data set [3] was “potent anti-VZV activity”.

In general, IC50 refers to the concentration that gives 50% inhibition. Read a low IC50 as higher potency.

The record behind these values is US5079235A, “Antiviral compounds” (Burroughs Wellcome Co., priority 1986, dated 1992).
